ChEMBL document CHEMBL1158744, “Leptolide, a new furanocembranolide diterpene from Leptogorgia alba” (J Nat Prod, 2005)

Test system: Plasmodium falciparum
Test: Antiplasmodial activity against Plasmodium falciparum W2 after 48 hrs in PicoGreen microfluorimetry
Assay type: functional, organism-based
Conditions: W2, 48 h

IC50	SMILES
109 µM	C=C(C)[C@H]1CC2=C(C(=O)OC)C=C(O2)[C@H]2O[C@]2(C)C[C@H]2C=C(C(=O)O2)[C@H](OC(C)=O)C1
50 µM	C=C(C)[C@@H]1CCC2=C[C@@H](OC2=O)[C@@H](C(=C)C)C2=CC(C(=O)OC)=C(C1)O2 [DEOXYPSEUDOPTEROLIDE]
105 µM	C=C(C)[C@H]1CC2=C(C(=O)OC)C=C(O2)[C@H]2O[C@]2(C)C[C@@H]2OC(=O)[C@]3(O[C@@H]23)[C@H](OC(C)=O)C1 [LOPHOLIDE]

Further lines, the compound ahead of its results:

SMILES	IC50
C=C(C)[C@@H]1CC2=C(C=O)C=C(O2)[C@@H]2O[C@@]2(C)C[C@H]2OC(=O)[C@@]3(O[C@H]23)[C@@H](OC(C)=O)C1 [LOPHOTOXIN]	74 µM
C=C(C)[C@H]1CCC2=C[C@@H](C[C@]3(C)O[C@H]3C3=CC(C=O)=C(C1)O3)OC2=O [PUKALIDE ALDEHYDE]	134 µM
